# Counter-ions that a name gives are not always drawn. Like-named read-outs stand apart in the source and are kept apart here.
# Tests used:
# OCA2 = assay: qPCR of OCA2 mRNA expression in a-MSH-treated melanocytes (B16F10); assay type: cell-based, mouse; details: a-MSH 10 nM plus substance, 1 day, appropriate concentration; FIG. 2
# Method: (§1) Screening was performed for substances that influence the expression of genes associated with dark skin tone among various substances having skin-improving efficacy. Changes in the expression of genes associated with dark skin tone were examined in cells where melanin synthesis was increased by a-MSH, and substances that restored the expression to the level before a-MSH treatment were selected.
# (§2) Mouse melanoma cells (B16F10; CRL-6475) were purchased from ATCC for use. The purchased cells were cultured in a 37 °C/5% CO2 incubator using a medium prepared by supplementing Dulbecco's Modified Eagle Medium (DMEM-GIBCO) with 10% fetal bovine serum (FBS) and 1% penicillin/streptomycin.
# (§3) To analyze the efficacy on changes in the mRNA expression of genes associated with dark skin tone, RT-qPCR experiment was conducted. Cells were cultured in a 37 °C/5% CO2 incubator for one day. To assess the change of KITLG expression by UVB, the medium of human keratinocytes (HaCaT) was replaced with PBS, and 30 mJ/cm^2 of UVB (312 nm) was irradiated using an RMX 3W (Vilber Lourmat) instrument. The medium was replaced with a fresh medium and cultured for one day. To assess the change in KITLG expression by treatment with substances, the cells were treated with appropriate concentrations of substances along with a fresh medium and cultured for one day. In addition, to assess the OCA2, BNC2, and RAB32 expression, melanocytes were treated with a-MSH (10 nM) and appropriate concentrations of substances in a fresh medium and cultured for 1 day. Thereafter, total RNA was obtained using AccuPrep Universal RNA Extraction Kit (Bioneer, K-3140), and cDNA was synthesized using AccuPower® RocketScript™ Cycle (Bioneer, K-2202). The expression level of each gene was analyzed by performing qPCR using synthesized cDNA and taqman probe (assay ID: OCA2-Mm00498969_m1, BNC2-Mm00556284_m1, RAB32-Mm00458960_m1, KITLG-Hs00241497_m1).
# BNC2 = assay: qPCR of BNC2 mRNA expression in a-MSH-treated melanocytes (B16F10); assay type: cell-based, mouse; details: a-MSH 10 nM plus substance, 1 day, appropriate concentration; FIG. 2
# Method: as §1, §2, §3
# RAB32 = assay: qPCR of RAB32 mRNA expression in a-MSH-treated melanocytes (B16F10); assay type: cell-based, mouse; details: a-MSH 10 nM plus substance, 1 day, appropriate concentration; FIG. 2
# Method: as §1, §2, §3
# [1] = tested on: protein carbonylation of keratinocytes; assay: Protein carbonylation inhibition in UVA-irradiated human keratinocytes (HaCaT); assay type: cell-based; details: relative to UVA-only group, significant
# Method: Previous studies have shown that skin dullness and yellowness are promoted by protein carbonylation of keratinocytes. Therefore, through a protein carbonylation assay, it was examined whether or not customized substances for dark skin tone may also improve skin dullness and yellowness.
# Human keratinocytes (HaCaT) were seeded at 1×10^4 in black clear-bottom 96-well plates, and after 24 hours, treated with customized substances at appropriate concentrations. After another 24 hours, cells were irradiated with […] of UVA, washed with PBS, and then incubated with fluolescein-5-thiosemicabarzide in MES buffer for 1 hour at room temperature. After another washing with PBS, fluorescence was measured using a plate reader at an excitation of 492 nm and an emission of 562 nm. Furthermore, based on the UVA-only treatment group, the reduction in protein carbonylation by other effective substances was measured.
# TP63 = assay: qPCR of TP63 mRNA expression in UVB-irradiated HaCaT cells; assay type: cell-based, human; details: UVB 10 mJ/cm^2, appropriate concentration, FIG. 3, UVB alone increased
# Method: as §1, with “spot pigmentation” for “dark skin tone”, “having the” for “having”
# (§4) To analyze the efficacy on changes in the mRNA expression of genes associated with skin spot pigmentation, mouse melanoma cells were seeded at […] cells/well in 6-well plates and cultured in a 37 °C/5% CO2 incubator for one day. After replacing the medium with a fresh medium, 10 nM α-MSH was treated, and substances were added to the medium at appropriate concentrations and cultured for one day under the same conditions. Thereafter, total RNA was obtained using AccuPrep Universal RNA Extraction Kit (Bioneer, K-3140), and cDNA was synthesized using AccuPower® RocketScript™ Cycle (Bioneer, K-2202). The expression level of each gene was analyzed by performing qPCR using synthesized cDNA and taqman probe (assay ID: ASCL2-Mm01268891_m1, PPARGC1B-Mm00504730_m1, TP63-Hs00978349_m1).
# TP63 expression was increased by 10 mJ/cm^2 of UVB in human keratinocytes, HaCaT. […]
# AKAP1 = assay: qPCR of AKAP1 mRNA expression in UVB-irradiated mouse melanoma cells; assay type: cell-based; details: B16F10, UVB 30 mJ/cm^2 (312 nm), substance one day, appropriate concentration; FIG. 1; UVB alone increased
# Method: as §1, with “with scattered” for “with”, “dark spots on” for “dark”, “skin” for “skin tone”, “UVB exposure,” for “a-MSH,”, “UVB exposure” for “a-MSH treatment”
# as §2
# (§5) To analyze the efficacy on changes in the mRNA expression of genes associated with scattered dark spots on skin, mouse melanoma cells were seeded at 2*10^5 cells/well in 6-well plates and cultured in a 37 °C/5% CO2 incubator for one day. After replacing the medium with PBS, 30 mJ/cm^2 of UVB (312 nm) was irradiated using an RMX 3W (Vilber Lourmat) instrument. Substances were added to the medium at appropriate concentrations and cultured for one day under the same conditions. […] The expression level of each gene was analyzed by performing qPCR using synthesized cDNA and taqman probe (assay ID: AKAP1-Mm00501539_m1, RAB11FIP2-Mm01261268_m1, PPARGC1B-Mm00504730_m1).
# PPARGC1B [2] = assay: qPCR of PPARGC1B mRNA expression in UVB-irradiated mouse melanoma cells; assay type: cell-based; details: B16F10, UVB 30 mJ/cm^2 (312 nm), substance one day, appropriate concentration; FIG. 1; UVB alone decreased
# Method: as §1, with “with scattered” for “with”, “dark spots on” for “dark”, “skin” for “skin tone”, “UVB exposure,” for “a-MSH,”, “UVB exposure” for “a-MSH treatment”
# as §2
# To analyze the efficacy on changes in the mRNA expression of genes associated with scattered dark spots on skin, mouse melanoma cells were seeded at 2*10^5 cells/well in 6-well plates and cultured in a 37 °C/5% CO2 incubator for one day. After replacing the medium with PBS, 30 mJ/cm^2 of UVB (312 nm) was irradiated using an RMX 3W (Vilber Lourmat) instrument. Substances were added to the medium at appropriate concentrations and cultured for one day under the same conditions. Thereafter, total RNA was obtained using AccuPrep Universal RNA Extraction Kit (Bioneer, K-3140), and cDNA was synthesized using AccuPower® RocketScript Cycle (Bioneer, K-2202). The expression level of each gene was analyzed by performing qPCR using synthesized cDNA and taqman probe (assay ID: AKAP1-Mm00501539_m1, RAB11FIP2-Mm01261268_m1, PPARGC1B-Mm00504730_m1).
# [3] = tested on: mouse melanoma cells and human keratinocytes; assay: Inhibition of melanin production increased by a-MSH (dark skin tone); assay type: cell-based; details: Keratinocyte, 48 h, a-MSH 10 nM, two days
# Method: In detail, mouse melanoma cells and human keratinocytes were seeded at […] cells/well in 6-well plates and cultured in a 37 °C/5% CO2 incubator for one day, followed by treatment with 10 nM of a-MSH. Each of media comprising appropriate concentrations and combinations of substances was added and cultured again in a 37 °C/5% CO2 incubator for two days to determine whether the substances inhibited the melanin production increased by a-MSH. Cells attached to the plates were collected in PBS and centrifuged to obtain cell pellets. The cell pellets were visually inspected and photographed. The cell pellets were dissolved in a 1 N NaOH (sodium hydroxide) solution comprising 10% dimethyl sulfoxide (DMSO) at 80 °C for 10 minutes, and placed in a 96-well plate, and absorbance at 405 nm was measured using an Epoch (Biotek) instrument. Melanin was quantified using the measured absorbance and normalized to the sample protein concentration to determine melanin concentration. The inhibition rate of melanin production of the sample was calculated as a ratio of the melanin concentration of the sample treatment group with respect to the melanin concentration increased by a-MSH treatment.
# E1=(X+Y)−(XY+XZ+YZ/100)+XYZ/10000 Colby equation
# E2=X+Y−(XY/100) Colby equation
# PPARGC1B [4] = assay: qPCR of PPARGC1B mRNA expression in a-MSH-treated B16F10 cells; assay type: cell-based, mouse; details: B16F10, 10 nM a-MSH plus substance, one day, appropriate concentration; FIG. 3
# Method: as §1, with “spot pigmentation” for “dark skin tone”, “having the” for “having”
# as §2, §4
# RAB11FIP2 = assay: qPCR of RAB11FIP2 mRNA expression in UVB-irradiated mouse melanoma cells; assay type: cell-based; details: B16F10, UVB 30 mJ/cm^2 (312 nm), substance one day, appropriate concentration; FIG. 1; UVB alone decreased
# Method: as §1, with “with scattered” for “with”, “dark spots on” for “dark”, “skin” for “skin tone”, “UVB exposure,” for “a-MSH,”, “UVB exposure” for “a-MSH treatment”
# as §2, §5
molecule,measurement,setting,value
O=c1c(-c2ccc(O)cc2)coc2cc(O)cc(O)c12 [genistein],change of OCA2 expression,OCA2,decreasing
same,change of BNC2 expression,BNC2,decreasing
same,change of RAB32 expression,RAB32,decreasing
gamma oryzanol,change of OCA2 expression,OCA2,decreasing
same,change of RAB32 expression,RAB32,decreasing
same,reduction in protein carbonylation,"[1]; 2.5 ppm, FIG. 9",39%
CC(=O)C(=O)[O-].[Na+] [sodium pyruvate],change of TP63 expression,TP63,decreased
N[C@@H](CS)C(=O)O [cysteine],change of AKAP1 expression,AKAP1,decreasing
"NC[C@H]1CC[C@H](C(=O)O)CC1 [tranexamic acid, trans-4-(aminomethyl)cyclohexanecarboxylic acid, reference compound]",change of OCA2 expression,OCA2,decreasing
"O=C1O[C@H](CO)[C@@H](O)[C@H](O)[C@H]1O [gluconolactone, glucono-delta-lactone]",change of PPARGC1B expression,PPARGC1B [2],increased
O=c1c(O)c(-c2ccc(O)c(O)c2)oc2cc(O)cc(O)c12 [quercetin],change of OCA2 expression,OCA2,decreasing
same,change of RAB32 expression,RAB32,decreasing
same,inhibition at 20 ppm,"[3]; 20 ppm quercetin, FIG. 6, read-out: reduction of melanin production",~33.9%
C[C@H]1[C@H](C)CC[C@]2(C(=O)O[C@@H]3O[C@H](CO[C@@H]4O[C@H](CO)[C@@H](O[C@@H]5O[C@@H](C)[C@H](O)[C@@H](O)[C@H]5O)[C@H](O)[C@H]4O)[C@@H](O)[C@H](O)[C@H]3O)CC[C@]3(C)C(=CC[C@@H]4[C@@]5(C)C[C@@H](O)[C@H](O)[C@@](C)(CO)[C@@H]5CC[C@]43C)[C@H]12 [asiaticoside],change of TP63 expression,TP63,decreased
NCCS [cysteamine HCl],change of AKAP1 expression,AKAP1,decreasing
C=C[C@@](C)(/C=C/c1ccc(O)cc1)CCC=C(C)C [bakuchiol],change of BNC2 expression,BNC2,decreasing
same,inhibition at 5 ppm,"[3]; 5 ppm, FIG. 5, read-out: reduction of melanin production (Y, Z)",~2.07%
O=C1O[C@H]([C@@H](O)CO)C(O)=C1O[C@H]1O[C@H](CO)[C@@H](O)[C@H](O)[C@H]1O [ascorbyl glucoside],change of PPARGC1B expression,PPARGC1B [4],increased
"COc1cc(/C=C/C(=O)O)ccc1O [ferulic acid, 4-hydroxy-3-methoxycinnamic acid]",change of OCA2 expression,OCA2,decreasing
same,change of BNC2 expression,BNC2,decreasing
same,change of RAB32 expression,RAB32,decreasing
same,inhibition at 10 ppm,"[3]; 10 ppm, FIG. 5, read-out: reduction of melanin production (X)",~5.04%
O=C(O)CO [glycolic acid],change of PPARGC1B expression,PPARGC1B [2],increased
"CC(C)=CCC[C@](C)(O)[C@@H]1CC=C(C)CC1 [bisabolol, 6-methyl-2-(4-methylcyclohex-3-en-1-yl)hept-5-en-2-ol]",change of RAB11FIP2 expression,RAB11FIP2,increasing
CCOC1=C(O)C(=O)O[C@@H]1[C@@H](O)CO [3-O-ethyl ascorbic acid],change of PPARGC1B expression,PPARGC1B [4],increased
"OC[C@H]1O[C@@H](Oc2cc(O)cc(/C=C/c3ccc(O)cc3)c2)[C@H](O)[C@@H](O)[C@@H]1O [polydatin, 3,4′,5-trihydroxystilbene-3-mono-D glucoside]",change of OCA2 expression,OCA2,decreasing
same,change of BNC2 expression,BNC2,decreasing
same,change of RAB32 expression,RAB32,decreasing
same,inhibition at 10 ppm,"[3]; 10 ppm polydatin, FIG. 6, read-out: reduction of melanin production",~23.8%
CC(C)CCCCCCCCCCCCCCC(=O)O [isostearic acid],change of OCA2 expression,OCA2,decreasing
same,inhibition at 50 ppm,"[1]; Homo sapiens, light or radiation study, 50 ppm, FIG. 9, read-out: reduction in protein carbonylation",31%
